Measured values from US20130131079A1, “FLUFENOXINE DERIVATIVES FOR THE TREATMENT AND PREVENTION OF AMYLOID PATHOLOGIES” (FAES FARMA, S.A., priority 2010, published 2013).
Structures can show the parent of a compound that is named as a salt. Where two headings read alike, the source gives them in different places.

Tests used:
[1] = system: primary cultures of CGN (cerebellar granule neurons); assay: Toxicity and cell viability in primary cultures of CGN; assay type: cell-based, mice; conditions: 24 or 48 hours, Coomassie staining, absorbance at 595 nm
Experimental: (§1) b) CGN: Cerebellar granule neurons derived from wild-type or transgenic mice were obtained from 6-day old mice. The basic process was similar to the previous one: obtaining and breaking up the tissue was similar and culturing and maintaining in final media was identical. The cerebellum was broken up by treatment with trypsin-EDTA for about 15-20 min and subsequently cultured in plates treated with Poly-L-Lysine (50 micrograms/m1). The neurons were maintained in a serum-free medium, Neurobasal medium+B27 Supplement+KCl+glutamine+antibiotics.
The cell viability of different strains was studied in the presence of the compounds of the invention. […] In the toxicity assays, the cells (whether neurons or established lines) were seeded in 24-well plates and exposed to different concentrations of the drug in Dulbecco's Modified Eagle's medium (DMEM)+10% FCS or in the Neurobasal medium+B27 Supplement+KCl+glutamine+antibiotics when primary neurons were used. The treatments were stopped after 24 or 48 hours by fixing the cells with 4% paraformaldehyde for 30 minutes. The fixed cells were stained with 0.2% Coomassie Brilliant blue R-250 in 10% acetic acid/40% methanol for 1 hour at ambient temperature. […] Then it was acidified with 10% trichloroacetic acid and the number of cells was measured in an Elisa reader, with absorbance at 595 nm. […]

tau phosphorylation = assay: Ability to modify levels of tau phosphorylation in primary culture of cerebellar granule neurons and/or brain cortex (Western Blot, Tau 1, PHF1); assay type: cell-based, mice; conditions: CGN or brain cortex neurons
Experimental: a)—Mouse cortex neurons: brains were obtained from 16-18-day old embryos. The two hemispheres, olfactory bulbs and brain stem were separated. The meninges were removed and the cut tissue was transferred to a 50 ml flask. 10 ml HBSS without Ca without Mg (without phenol red) were added. Two further washings with 3 ml HBSS were performed and digestion was performed with Trypsin-DNase at 37° C. The suspension was broken up by passing the material through glass pipettes with different thicknesses. The cells were cut and cultured in Dulbecco's Modified Eagle's medium (DMEM)+10% FCS. After 3 hours the final medium was placed in Neurobasal medium+B27 Supplement+KCl+glutamine+antibiotics.
as §1
Ability to Modify Levels of Tau Phosphorylation in Primary Culture of Cerebellar Granule Neurons (CGN) and/or Brain Cortex Derived from Mice (Wild Strain)
The data was obtained in relation to the mean of 3 independent experiments of the relative level of tau-1 in soluble cell extracts obtained from cerebellar granule or brain cortex neurons treated with the indicated compounds. The ability to modify the level of tau phosphorylation in cortex neurons or cerebellar granule of […] was analyzed through Western Blot using specific antibodies in a series of fosfo-epitopes (Tau 1, PHF1) after 1, 2 and 3 incubation hours. Actine was used as reference (indicator of the total mass).

cell line CHO-APP-PS1 = assay: Toxicity and cell viability in cultures of cell line CHO-APP-PS1; assay type: cell-based, Chinese hamster
Experimental: The cell viability of different strains was studied in the presence of the compounds of the invention. […] In the toxicity assays, the cells (whether neurons or established lines) were seeded in 24-well plates and exposed to different concentrations of the drug in Dulbecco's Modified Eagle's medium (DMEM)+10% FCS or in the Neurobasal medium+B27 Supplement+KCl+glutamine+antibiotics when primary neurons were used. The treatments were stopped after 24 or 48 hours by fixing the cells with 4% paraformaldehyde for 30 minutes. The fixed cells were stained with 0.2% Coomassie Brilliant blue R-250 in 10% acetic acid/40% methanol for 1 hour at ambient temperature. The stained cells were washed thoroughly with distilled water, and once dried the incorporated dye was extracted with 0.1 N NaOH in 50% methanol. Then it was acidified with 10% trichloroacetic acid and the number of cells was measured in an Elisa reader, with absorbance at 595 nm. DMSO (10 μl/well) was used as a control. […] The medium was collected for 6 hours, and then it was diluted 5 times and analyzed in duplicate using a Biosource ELISA kit (h 1-40 βAmyloid—Ref #KHB3482).

[2] = at 5 and/or 10 micromolar, relative level of tau-1
[3] = relative level of tau-1 in soluble cell extracts, mean of 3 experiments

Row | Compound | ability to modify the level of tau phosphorylation (tau phosphorylation; [2]) | further results
1 | Clc1ccc(C(Oc2cccc3ccccc23)C2CCNCC2)cc1 (racemic) [COMPOUND 31, (+/−)-4-[(Naphthalen-1-oxy)(4-chlorophenyl)methyl]piperidine hemisulphate] | modify tau phosphorylation | toxicity (cell viability) [1]: somewhat toxic only at certain concentrations
2 | Fc1cc(COc2ccc3c(c2)OCO3)cc(OC(c2ccccc2)C2CCNCC2)c1 (racemic) [COMPOUND 32, hydrochloride] | modify tau phosphorylation | –
3 | NCCN1CCC(C(Oc2cccc(F)c2)c2ccccc2)CC1 (racemic) [COMPOUND 37, (+/−)-4-[(3-fluorophenoxy)phenylmetyl]piperidin-1-yl]ethylamine oxalate] | modify tau phosphorylation | toxicity (cell viability) [1]: somewhat toxic only at certain concentrations
4 | Ic1cccc(OC(c2ccccc2)C2CCNCC2)c1 (stereo not drawn) [COMPOUND 3] | – | toxicity (cell viability) (cell line CHO-APP-PS1): none of them giving rise to statistically relevant toxicity levels; ability to modify the level of tau phosphorylation (tau phosphorylation; [3]): modify tau phosphorylation
5 | Cc1ccc(Cl)cc1OC(c1ccccc1)C1CCNCC1 (stereo not drawn) [COMPOUND 10] | – | toxicity (cell viability) (cell line CHO-APP-PS1; cultures of cell line CHO-APP-PS1, 24 or 48 hours, Coomassie staining, absorbance at 595 nm): none of them giving rise to statistically relevant toxicity levels; ability to modify the level of tau phosphorylation (tau phosphorylation; [3]): modify tau phosphorylation
6 | Fc1ccccc1OC(c1ccccc1)C1CCNCC1 (stereo not drawn) [COMPOUND 21] | modify tau phosphorylation | –
7 | Fc1ccc(OC(CC2CCNCC2)c2ccc(F)cc2)cc1 (stereo not drawn) [COMPOUND 24] | modify tau phosphorylation | –
8 | Fc1ccc(OC(CC2CCNCC2)c2ccccc2)cc1 (stereo not drawn) [COMPOUND 27] | modify tau phosphorylation | –
9 | FC(F)(F)c1ccccc1OC(c1ccccc1)C1CCNCC1 (stereo not drawn) [COMPOUND 29] | modify tau phosphorylation | –
10 | Clc1ccc(OC(c2ccccc2)C2CCNCC2)cc1Cl (stereo not drawn) [COMPOUND 34] | modify tau phosphorylation | –
11 | c1ccc(C(Oc2cccc3ccccc23)C2CCNCC2)cc1 (stereo not drawn) [COMPOUND 35] | modify tau phosphorylation | –
12 | Clc1ccc(/C=C(\c2ccccc2)C2CCNCC2)cc1 [COMPOUND 36, (Z)-4-[(1-phenyl)-2-(4-chlorophenyl)ethen-1-yl]piperidine] | modify tau phosphorylation | –
13 | c1ccc(-c2ccccc2OC(c2ccccc2)C2CCNCC2)cc1 (stereo not drawn) [COMPOUND 40] | modify tau phosphorylation | –
14 | FC(F)(F)c1ccc(OC(c2ccccc2)C2CCNCC2)cc1 (stereo not drawn) [COMPOUND 41] | modify tau phosphorylation | –
